Test results from article PMC11866022, “Long-Chain Cyclic Arylguanidines as Multifunctional Serotonin Receptor Ligands with Antiproliferative Activity” (ACS Omega, 2025).

Experiments:
5-HT7 = target: T1, 5-HT7 (Homo sapiens, UniProt P34969); assay: Radioligand binding assay, 5-HT7 ([3H]-5-CT); settings: Table 3, unit inferred; 0.8 nM [3H]-5-CT
T1 construct: expressed in transfected cells; host or cells: HEK293
Protocol: (§1) Their functional activity was also evaluated by assessing their ability to inhibit agonist-induced cAMP production in HEK293 cells (Table 3). Extended radioisotope tests were aimed at detecting potential affinity for other aminergic receptors, whose role in cancer treatment may be important. Functions were tested for all receptors. The essence of functional tests results from the fact that serotonin stimulates tumor progression. Therefore, the ligand should have the potential to reduce its concentration, i.e., act as an antagonist.[39]
The detailed procedure is presented in previous publications.[53] Assays were performed by incubating for 1 h at 37 °C (room temperature for 5-HT1A) in 200 μL volumes on 96-well plates. The reaction was terminated by rapid filtration using Unifilter plates, and radioactivity on the filters was measured with a PerkinElmer Microbeta plate reader. Radioligands used were:
Eight concentrations (10^–4 to 10^–11 M) were tested in triplicate for each compound. Inhibition constants (Ki) were calculated using the Cheng–Prusoff equation.[54] The results are expressed as the means of at least two independent experiments.

5-HT1A = target: T2, 5-HT1A (Homo sapiens, UniProt P08908); assay: Functional cAMP assay (LANCE Ultra), 5-HT1A; assay type: cell-based; settings: for EC50: agonist mode; for function at 5-HT1A: in words
T2 construct: expressed in transfected cells; host or cells: HEK293
T2 sequence (P08908 1-422): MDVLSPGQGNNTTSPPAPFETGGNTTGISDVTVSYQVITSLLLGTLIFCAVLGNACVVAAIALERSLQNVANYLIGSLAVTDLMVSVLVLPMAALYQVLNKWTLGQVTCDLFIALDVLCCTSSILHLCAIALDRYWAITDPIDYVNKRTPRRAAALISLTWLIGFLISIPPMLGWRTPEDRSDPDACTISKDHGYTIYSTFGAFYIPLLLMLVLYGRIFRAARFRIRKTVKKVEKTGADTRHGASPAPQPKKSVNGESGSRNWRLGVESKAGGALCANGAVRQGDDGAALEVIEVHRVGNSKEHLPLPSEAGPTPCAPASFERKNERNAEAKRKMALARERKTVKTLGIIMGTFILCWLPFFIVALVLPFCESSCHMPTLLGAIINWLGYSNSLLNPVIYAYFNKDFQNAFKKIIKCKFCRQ
Protocol: as §1
The detailed procedure is presented in previous publications.[53] The functional activity of the compounds was assessed using the LANCE Ultra cAMP detection kit (PerkinElmer). […] For other receptors (5-HT7R, 5-HT1AR, and 5-HT6R), 5-CT was used at 10, 100, and 1000 nM, respectively. Each compound was tested in triplicate across eight concentrations. The inhibitory constant (Kb) for each antagonist was calculated using the Cheng–Prusoff equation.

MCF7 breast cancer cells = assay: Antiproliferative activity (MTS), MCF7; assay type: cell-based, human; settings: Homo sapiens, MCF7; MTS assay, 72 h
Protocol: (§2) These cell lines were characterized by different mutation profiles, the main one being the variable status of the p53 protein. In detail, U87MG cells have a wild-type p53 protein, while astrocytoma and the rest of GBM cells harbor mutated p53 protein. Additional assays were performed on MCF7 breast cancer and AsPC-1 pancreatic cancer cells. The wide range of tested lines was aimed at screening the anticancer potential of the tested compounds. The first represents one of the most common and the second one of the most aggressive cancers in the world. Comparing the activity of compounds on GBM cells to other types of cancer may reveal their selectivity and usefulness in targeted therapies. The cytotoxicity of the compounds on normal human astrocytes (NHA) and Feline catus astrocyte (PG-4) was determined. Tests on normal lines serve to verify the potential toxicity of the tested compounds on healthy cells. Due to the targeting of CNS tumors, astrocytes were selected as normal lines.
The detailed procedure is presented in previous publications.[53] […] Cells were cultured in appropriate media, supplemented with FBS, antibiotics, and other supplements, and incubated at 37 °C with 5% CO2. […] Cell viability was assessed using the MTS assay, and the inhibitory concentration (IC50) was calculated using GraphPad Prism 8.0. Each compound was tested in triplicate across multiple experiments.

[1] = test system: normal human astrocytes (NHA); assay: Cytotoxicity (MTS), normal human astrocytes; assay type: cell-based; settings: for IC50: Homo sapiens, Astrocyte, 72 h, normal human astrocytes, MTS assay
Protocol: as §2, with “The chosen group of ligands was further examined for their ability to inhibit proliferation across multiple cancer cell lines related to the CNS system (1321N1, U87MG, LN-229, and U-251). These” for “These”
The detailed procedure is presented in previous publications.[53] Briefly, the study utilized various human cancer and normal cell lines, including LN-229 (glioblastoma), MCF7 (breast carcinoma), HepG2 (hepatoma), U-251 (glioblastoma), U87MG (glioblastoma), AsPC-1 (pancreatic adenocarcinoma), and NHA (normal human astrocytes). Cells were cultured in appropriate media, supplemented with FBS, antibiotics, and other supplements, and incubated at 37 °C with 5% CO2. Compounds were dissolved in DMSO, prepared at various concentrations (1–25 μM), and applied to the cells for 72 h. Cell viability was assessed using the MTS assay, and the inhibitory concentration (IC50) was calculated using GraphPad Prism 8.0. Each compound was tested in triplicate across multiple experiments.

HepG2 hepatoma cells = assay: Hepatotoxicity (MTS), HepG2; assay type: cell-based, human; settings: 48 h; for hepatotoxic effect on HepG2: 1–10 μM; for HepG2 cell viability: 50 or 100 μM
Protocol: As a next step, we decided to investigate the potential toxicity of our lead compounds by assessing their toxic effects on the liver (in vitro), heart, and brain (in vivo). The safety profile was assessed through a hepatotoxicity assay using HepG2 hepatoma cells. (Figures 2E,F, 3E,F).

HSA and AGP (24:1) = assay: TRANSILXL PPB plasma protein binding assay; settings: human, TRANSILXL PPB assay, HSA and AGP in a ratio 24:1

T1 sequence (P34969 whole entry, species assumed): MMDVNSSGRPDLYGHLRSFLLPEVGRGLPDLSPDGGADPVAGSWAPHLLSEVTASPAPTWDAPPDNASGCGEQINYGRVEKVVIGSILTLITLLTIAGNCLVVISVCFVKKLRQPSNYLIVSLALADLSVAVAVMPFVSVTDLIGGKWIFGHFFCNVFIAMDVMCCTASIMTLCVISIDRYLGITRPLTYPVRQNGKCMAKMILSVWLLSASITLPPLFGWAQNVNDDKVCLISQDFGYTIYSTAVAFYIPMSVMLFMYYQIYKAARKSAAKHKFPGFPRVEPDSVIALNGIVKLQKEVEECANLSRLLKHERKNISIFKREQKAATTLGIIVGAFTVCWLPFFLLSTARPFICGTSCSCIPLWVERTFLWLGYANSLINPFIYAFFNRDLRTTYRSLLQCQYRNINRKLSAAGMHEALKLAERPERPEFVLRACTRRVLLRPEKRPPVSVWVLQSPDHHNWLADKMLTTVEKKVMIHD

Compound	Ki (5-HT7) [µM]	EC50 (5-HT1A; Table 3, unit inferred, cAMP) [µM]	function at 5-HT1A (5-HT1A)	IC50 (MCF7 breast cancer cells) [µM]	Kb (5-HT1A; Table 3, unit inferred, cAMP, antagonist mode, 5-CT) [µM]	IC50 [1] [µM]	hepatotoxic effect on HepG2 (HepG2 hepatoma cells)	HepG2 cell viability (HepG2 hepatoma cells)	fraction unbound (HSA and AGP (24:1))	selectivity index ([1]; normal astrocytes versus cancer cell lines)	cytotoxic effect on HepG2 (HepG2 hepatoma cells; 10 μM)
O=S(=O)(c1cccc2ccccc12)N1CCN(CCNC2=Nc3ccccc3CN2)CC1 [PP 6, N-{2-[4-(Naphthalene-1-sulfonyl)piperazin-1-yl]ethyl}-3,4-dihydroquinazolin-2-amine]	2.4	0.375	agonist	> 25							
CC1NC(NCCCCCCNS(=O)(=O)c2cccc3ccccc23)=Nc2ccccc21 (centres unmarked) [PP 10, N-{6-[(4-Methyl-3,4-dihydroquinazolin-2-yl)amino]hexyl}naphthalene-1-sulfonamide]	0.189		antagonist	> 25	0.074	12.6 ± 0.4	no hepatotoxic effects	statistically significant decrease in cell viability	0.003		
CC1NC(NCCCCCCNS(=O)(=O)c2c(Cl)ccc3ccccc23)=Nc2ccccc21 (centres unmarked) [PP 13, 2-Chloro-N-{6-[(4-methyl-3,4-dihydroquinazolin-2-yl)amino]hexyl}naphthalene-1-sulfonamide]	0.198	1.54	agonist	19.3 ± 0.3		4.2 ± 0.4	no hepatotoxic effects	statistically significant decrease in cell viability	0.001 ± 3e-07		
O=S(=O)(NCCCCCCNc1ncc2ccccc2n1)c1cccc2ccccc12 [PP 15, N-{6-[(Quinazolin-2-yl)amino]hexyl}naphthalene-1-sulfonamide]	1.56			> 25			no hepatotoxic effects	statistically significant decrease in cell viability			
O=S1(=O)c2cccc3cccc(c23)N1CCCCCCNC1=Nc2ccccc2CN1 [PP 24, 3-{6-[(3,4-Dihydroquinazolin-2-yl)amino]hexyl}-2λ^6-thia-3-azatricyclo[6.3.1.0^4,^12]dodeca-1(11),4(12),5,7,9-pentaene-2,2-dione]				15.7 ± 1.6		7.9 ± 0.4			0.004	below 1	strong cytotoxic effect
